Tests used:
[1] = tested on: Staphylococcus aureus (ATCC-6538) and Pseudomonas aeruginosa (ATCC-15442); test: quantitative suspension test for bactericidal activity, UNI EN 1272:2009; assay type: cell-based
Description: The bactericidal activity was tested on aqueous solutions of the complex of Example 1, (i.e. where the ligand L coordinated to the silver ion is the 2-Mercapto-5-benzimidazolesulfonic acid sodium salt).
The bactericidal activity tests were carried out according to UNI EN 1272:2009 and UNI EN 13697:2001 standards, which makes reference to chemical disinfectants and antiseptics, by using the following test organism: Staphylococcus aureus (ATCC-6538), as representative of Gram-positive bacteria and Pseudomonas aeruginosa (ATCC-15442), as representative of Gram-negative bacteria.

[2] = tested on: sepsis; settings: burns treated with silver nitrate; decreased from 60%; cited from earlier work
[3] = tested on: Staphylococcus epidermidis; settings: cited from earlier work

Row | Compound | antimicrobial activity after exposure to ambient light ([1]; after exposure to ambient light, reduction of Ag^+ to Ag^∘) | reduction of bacterial count compared with the silver complex ([1]; solution of comparable concentration) | number of deaths that were a result of sepsis [2] | development of resistance by Staphylococcus epidermidis [3]
1 | O=[N+]([O-])[O-].[Ag+] [Silver Nitrate] | lose the antimicrobial activity | analogously | 28% | 
2 | [H]/N=C(\N/C(=N/[H])NCCCCCCNC(=N)NC(=N)Nc1ccc(Cl)cc1)Nc1ccc(Cl)cc1 [chlorhexidine] |  |  |  | no evidence of resistance was observed
3 | polyhexametylene biguanide |  |  |  | no evidence of resistance was observed

Reference: patent publication US20160130234A1, “PHARMACEUTICAL COMPOSITIONS BASED ON PHOTOCHEMICALLY STABLE SILVER COMPLEXES, CHLOREXIDINE AND CATIONIC SURFACTANTS” (PAVIA FARMACEUTICI S.R.L., priority 2013, published 2016)
